Here are results for 17 compounds from patent US12643912B2, “Macrocyclic compounds, a process for their preparation and pharmaceutical compositions containing them” (LES LABORATOIRES SERVIER, priority 2020, dated 2026).

Molecules are shown by their SMILES.

One experiment addresses T1, Keap1 (A321-C624) (h) (Homo sapiens, UniProt Q14145).
T1 construct: His-Thromb-KEAP1(A321-C624) acquired from Novalix (batch PU-P01) was immobilized covalently by amine coupling; His tag (N); thrombin cleavage site (Thromb) (N); purchased Novalix batch PU-P01
Put plainly: Surface Plasmon Resonance binding assay to Kelch domain of KEAP1. The settings on record: Biacore T200, 25° C., immobilized His-Thromb-KEAP1(A321-C624), single cycle kinetics, KD=kd/ka from 1:1 fit; read-out: Keap1 (A321-C624) (h) direct/SPR (KD). A digest of the protocol: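 His-Thromb-KEAP1(A321-C624) amine-coupled on CM5 chip to 1250 RU; amine blank reference. Run at 25° C in HEPES pH 7.4, 150 mM NaCl, 3 mM EDTA, 1 mM TCEP, 0.05% P20, 5% DMSO; 180 s association, 720 s dissociation, 50 μL/min. KD = kd/ka from 1:1 kinetic fit, double-referenced, DMSO solvent-corrected.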

The test system of experiment [1] is Nrf2 (Keap1-NRF2 nuclear translocation). Put plainly: U2OS translocation assay (PathHunter U2OS Keap1-NRF2 Nuclear Translocation Cell Line). Format: cell-based. The settings on record: Homo sapiens, U2OS, 3 h, read-out: CELLULAR U2OS EC50 (nM), U2OS Keap1-NRF2 nuclear translocation cells, 3 h incubation, luminescence, normalized between 1% DMSO and 10 μM andrographolide. In a few lines:
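PathHunter U2OS line expressing Nrf2-enzyme-donor fusion and nuclear acceptor enzyme, 7 500 cells/well in Opti-MEM, 1% FBS. Compounds incubated 3 h at 37° C. Luminescence after 60 min with detection reagent, normalized between 1% DMSO and 10 μM andrographolide.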

T1 sequence (Q14145 321-624): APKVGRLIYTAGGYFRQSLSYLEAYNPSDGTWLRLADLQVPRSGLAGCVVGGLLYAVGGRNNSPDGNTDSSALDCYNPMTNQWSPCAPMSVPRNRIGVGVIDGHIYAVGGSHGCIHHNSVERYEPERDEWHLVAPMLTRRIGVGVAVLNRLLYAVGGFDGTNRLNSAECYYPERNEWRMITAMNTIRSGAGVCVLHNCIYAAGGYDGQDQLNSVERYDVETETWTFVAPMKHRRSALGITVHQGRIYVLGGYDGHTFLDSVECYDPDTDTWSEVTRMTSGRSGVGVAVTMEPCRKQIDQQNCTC

Turning to `Cc1ccc2cc1[C@@H](C)N1Cc3cc(ccc3OS1(=O)=O)OCCCOCCn1nnc3c(C)c(ccc31)[C@@H]2CC(=O)O` [Example 27a, [(2R,8R)-2,4,33-Trimethyl-29,29-dioxo-19,23,28-trioxa-29λ^6-thia-1,14,15,16-tetraazahexacyclo[22.5.3.1^3,70.1^9,130.1^12,160.0^27,31]tetratriaconta-3(34),4,6,9(33),10,12,14,24,26,31-decaen-8-yl]acetic acid], the Kd on Keap1 (A321-C624) (h) was 14.2 nM. The concentration giving a half-maximal response (EC50) (in general, the concentration that produces a half-maximal response) in experiment [1] amounted to 93.1 nM.
For the compound `Cc1ccc2cc1[C@@H](C)N1Cc3cc(ccc3OS1(=O)=O)OCCCOCCn1nnc3c(C)c(ccc31)[C@H]2CC(=O)O` [Example 27b, [(2R,8S)-2,4,33-trimethyl-29,29-dioxo-19,23,28-trioxa-29λ^6-thia-1,14,15,16-tetraazahexacyclo[22.5.3.1^3,70.1^9,130.0^12,160.0^27,31]tetratriaconta-3(34),4,6,9(33),10,12,14,24,26,31-decaen-8-yl]acetic acid], the Kd on Keap1 (A321-C624) (h) turned out to be 3.56 nM. For the same compound, the concentration for a half-maximal effect (EC50) in experiment [1] is 16.2 nM.
Regarding `COc1ccc2cc1[C@@H](C)N1Cc3cc(ccc3OS1(=O)=O)OCCCCn1nnc3c(C)c(ccc31)[C@@H]2CC(=O)O` [Example 28a, [(2R,8R)-4-Methoxy-2,31-dimethyl-27,27-dioxo-21,26-dioxa-27λ^6-thia-1,14,15,16-tetraazahexacyclo[20.5.3.1^3,70.1^9,130.0^12,160.0^25,29]dotriaconta-3(32),4,6,9(31),10,12,14,22,24,29-decaen-8-yl]acetic acid], the Kd at Keap1 (A321-C624) (h) was 23.4 nM. Moreover, the half-maximal effective concentration (EC50) in experiment [1] stood at 611 nM.
For `COc1ccc2cc1[C@@H](C)N1Cc3cc(ccc3OS1(=O)=O)OCCCCn1nnc3c(C)c(ccc31)[C@H]2CC(=O)O` [Example 28b, [(2R,8S)-4-methoxy-2,31-dimethyl-27,27-dioxo-21,26-dioxa-27λ^6-thia-1,14,15,16-tetraazahexacyclo[20.5.3.1^3,70.1^9,130.0^12,160.0^25,29]dotriaconta-3(32),4,6,9(31),10,12,14,22,24,29-decaen-8-yl]acetic acid] the same measures were 3.25 nM and 15.3 nM.
For `Cc1ccc2cc1[C@@H](C)N1Cc3cc(ccc3OS1(=O)=O)OCCN(C)CCCn1nnc3c(C)c(ccc31)[C@H]2CC(=O)O` [Example 34a, [(2R,8S)-2,4,20,33-tetramethyl-29,29-dioxo-23,28-dioxa-29λ^6-thia-1,14,15,16,20-pentaazahexacyclo[22.5.3.1^3,70.1^9,130.0^12,160.0^27,31]tetratriaconta-3(34),4,6,9(33),10,12,14,24,26,31-decaen-8-yl]acetic acid], the Kd at Keap1 (A321-C624) (h) amounted to 0.49 nM. Besides, the 50% effective concentration (EC50) in experiment [1] amounted to 2.66 nM.
In the same order, the values of `Cc1ccc2cc1[C@@H](C)N1Cc3cc(ccc3OS1(=O)=O)OCCN(C)CCCn1nnc3c(C)c(ccc31)[C@@H]2CC(=O)O` [Example 34b, [(2R,8R)-2,4,20,33-tetramethyl-29,29-dioxo-23,28-dioxa-29λ^6-thia-1,14,15,16,20-pentaazahexacyclo[22.5.3.1^3,70.1^9,130.0^12,160.0^27,31]tetratriaconta-3(34),4,6,9(33),10,12,14,24,26,31-decaen-8-yl]acetic acid] are 1.85 nM and 31.1 nM.
In the same order, the values of `COc1ccc2cc1[C@@H](C)N1Cc3cc(ccc3OS1(=O)=O)OCCCCCCn1nnc3c(C)c(ccc31)[C@H]2CC(=O)O` [Example 40a, [(2R,8S)-4-methoxy-2,33-dimethyl-29,29-dioxo-23,28-dioxa-29λ^6-thia-1,14,15,16-tetraazahexacyclo[22.5.3.1^3,70.1^9,130.0^12,160.0^27,31]tetratriaconta-3(34),4,6,9(33),10,12,14,24,26,31-decaen-8-yl]acetic acid] are 5.51 nM and 9.72 nM.
On to `COc1ccc2cc1[C@@H](C)N1Cc3cc(ccc3OS1(=O)=O)OCCCCCCn1nnc3c(C)c(ccc31)[C@@H]2CC(=O)O` [Example 40b, [(2R,8R)-4-methoxy-2,33-dimethyl-29,29-dioxo-23,28-dioxa-29λ^6-thia-1,14,15,16-tetraazahexacyclo[22.5.3.1^3,70.1^9,130.0^12,160.0^27,31]tetratriaconta-3(34),4,6,9(33),10,12,14,24,26,31-decaen-8-yl]acetic acid], for which the Kd on Keap1 (A321-C624) (h) turned out to be 22.3 nM. Moreover, the EC50 in experiment [1] was found to be 353 nM.
`Cc1ccc2cc1CN1Cc3cc(ccc3OS1(=O)=O)N(C)CCCCn1nnc3c(C)c(ccc31)C2CC(=O)O` (stereo not shown) [Example 42, [4,21,31-Trimethyl-27,27-dioxo-26-oxa-27λ^6-thia-1,14,15,16,21-pentaazahexacyclo[20.5.3.1^3,70.1^9,130.0^12,160.0^25,29]dotriaconta-3(32),4,6,9(31),10,12,14,22,24,29-decaen-8-yl]acetic acid]: the Kd on Keap1 (A321-C624) (h) worked out at 1.57 nM. The EC50 in experiment [1] is 21.4 nM.
In the same order, the values of `Cc1ccc2cc1CN1Cc3cc(ccc3OS1(=O)=O)N(C)C(=O)CCCn1nnc3c(C)c(ccc31)C2CC(=O)O` (stereo not shown) [Example 43, [4,21,31-Trimethyl-20,27,27-trioxo-26-oxa-27λ^6-thia-1,14,15,16,21-pentaazahexacyclo[20.5.3.1^3,70.1^9,130.0^12,160.0^25,29]dotriaconta-3(32),4,6,9(31),10,12,14,22,24,29-decaen-8-yl]acetic acid] are 2.92 nM and 570 nM.
In the same order, the values of `Cc1ccc2cc1CN1Cc3cc(ccc3OS1(=O)=O)OC[C@H](O)CCn1nnc3c(C)c(ccc31)C2CC(=O)O` (stereo partly drawn) [Example 44, [(19R)-19-hydroxy-4,31-dimethyl-27,27-dioxo-21,26-dioxa-27λ^6-thia-1,14,15,16-tetraazahexacyclo[20.5.3.1^3,70.1^9,130.0^12,160.0^25,29]dotriaconta-3(32),4,6,9(31),10,12,14,22,24,29-decaen-8-yl]acetic acid] are 0.146 nM and 292 nM.
In the same order, the values of `Cc1ccc2cc1CN1Cc3cc(ccc3OS1(=O)=O)OCCCCn1nnc3c(C)c(cc(Cl)c31)[C@@H]2CC(=O)O` [Example 50, [(8R)-11-Chloro-4,31-dimethyl-27,27-dioxo-21,26-dioxa-27λ^6-thia-1,14,15,16-tetraazahexacyclo[20.5.3.1^3,70.1^9,130.0^12,160.0^25,29]dotriaconta-3(32),4,6,9(31),10,12,14,22,24,29-decaen-8-yl]acetic acid] are 5.97 nM and 139 nM.
Turning to `Cc1ccc2cc1CN1Cc3c(ccc(c3Cl)OCCCCn3nnc4c(C)c(cc(Cl)c43)[C@@H]2CC(=O)O)OS1(=O)=O` [Example 51, [(8R)-11,30-Dichloro-4,31-dimethyl-27,27-dioxo-21,26-dioxa-27λ^6-thia-1,14,15,16-tetraazahexacyclo[20.5.3.1^3,70.1^9,130.0^12,160.0^25,29]dotriaconta-3(32),4,6,9(31),10,12,14,22,24,29-decaen-8-yl]acetic acid], the Kd at Keap1 (A321-C624) (h) turned out to be 2.03 nM. Further, the EC50 in experiment [1] was found to be 103 nM.
In the same order, the values of `Cc1ccc2cc1CN1Cc3cc(c(Cl)cc3OS1(=O)=O)OCCCCn1nnc3c(C)c(cc(Cl)c31)[C@@H]2CC(=O)O` [Example 52, [(8R)-11,23-Dichloro-4,31-dimethyl-27,27-dioxo-21,26-dioxa-27λ^6-thia-1,14,15,16-tetraazahexacyclo[20.5.3.1^3,70.1^9,130.0^12,160.0^25,29]dotriaconta-3(32),4,6,9(31),10,12,14,22,24,29-decaen-8-yl]acetic acid] are 8.86 nM and 180 nM.
For `[2H]C([2H])(C(=O)O)[C@@H]1c2ccc(C)c(c2)CN2Cc3cc(ccc3OS2(=O)=O)OCCCCn2nnc3c(C)c1ccc32` [Example 55a, [(8R)-4,31-Dimethyl-27,27-dioxo-21,26-dioxa-27λ^6-thia-1,14,15,16-tetraazahexacyclo[20.5.3.1^3,70.1^9,130.0^12,160.0^25,29]dotriaconta-3(32),4,6,9(31),10,12,14,22,24,29-decaen-8-yl](^2H2)acetic acid] the same measures were 2 nM and 183 nM.
For `[2H]C([2H])(C(=O)O)[C@H]1c2ccc(C)c(c2)CN2Cc3cc(ccc3OS2(=O)=O)OCCCCn2nnc3c(C)c1ccc32` [Example 55b, [(8S)-4,31-Dimethyl-27,27-dioxo-21,26-dioxa-27λ^6-thia-1,14,15,16-tetraazahexacyclo[20.5.3.1^3,70.1^9,130.0^12,160.0^25,29]dotriaconta-3(32),4,6,9(31),10,12,14,22,24,29-decaen-8-yl](^2H2)acetic acid], the Kd on Keap1 (A321-C624) (h) turned out to be 2.5 nM. The 50% effective concentration (EC50) in experiment [1] amounted to 15.8 nM.
For `Cc1c2ccc3c1nnn3CCCCOc1ccc3c(c1)CN([C@H](C)c1cc(ccc1Cl)[C@@H]2CC(=O)O)S(=O)(=O)O3` [Example 64a, [(2R,8S)-4-chloro-2,31-dimethyl-27,27-dioxo-21,26-dioxa-27λ^6-thia-1,14,15,16-tetraazahexacyclo[20.5.3.1^3,70.1^9,130.0^12,160.0^25,29]dotriaconta-3(32),4,6,9(31),10,12,14,22,24,29-decaen-8-yl]acetic acid] the same measures were 0.195 nM and 24 nM.
